# Where a SMILES comes first, the peptide text is derived from it. [ ]: non-standard residue; d: D form. The star is where a group is joined. X1 = CN1/C(=C/C=C(/C=C/C2=[N+](C)c3ccccc3C2(C)C)c2ccc(C(=O)*)cn2)C(C)(C)c2ccccc21; X2 = O=C1OC2(c3ccc(O)cc3Oc3cc(O)ccc32)c2cccc(C(=O)*)c21
# Experiments:
# Format in all cases: cell-based
# Aspergillus fumigatus = conditions: 24 h
# Experimental: The assays were performed using Nunc 262162 U96 polystyrene round bottomed clear plates (www.nuncbrand.com).
# (§1) When testing the peptides against A. fumigatus, peptides at different concentrations were mixed with A. fumigatus conidia to reach a final volume of 100 μL per well. The final conidial concentration was 5×10^5 cells/mL in 10% Vogel's medium. After 24 h of incubation at 37° C. in 96 well plates, fungal growth with the different peptide concentrations was determined by measurement of the optical density at 610 nm in a TriStar LB 941 Multimode Microplate Reader. The IC50 values were determined using four parameter logistic regression formula provided by Sigma Plot 10.0. Values are represented as means±SEM from two independent experiments (n=3).
# (§2) The IC50 of the fluorescently labelled peptides cannot be accurately determined using the optical density method described in the last section. This is because the fluorophore structures absorbed light at 610 nm which was the wavelength used for the optical density measurements. In order to overcome this, the BacTiter-Glo™ Microbial Cell Viability Assay kit purchased from Promega was used. The BacTiter-Glo™ Reagent relies on the properties of a proprietary thermostable luciferase (Ultra-Glo™ Recombinant Luciferase) and a proprietary formulation for extracting ATP from fungal cells which will generates a ‘glow-type’ luminescent signal. This is produced by the luciferase reaction shown in Scheme 1, which has a signal half-life of over 30 min depending on the experimental conditions. The luminescent signal is proportional to the amount of ATP present, which is directly proportional to the number of living cells in culture.
# (§3) The IC50 assays for all fluorescently labelled peptides were performed using Greiner CELLSTAR white polystyrene wells flat bottomed 96 well plates. The incubation conditions remained the same for the optical density measurement described in the previous section. Once the incubation procedure was finished, the plate was equilibrated to room temperature. A mixture of BacTiter-Glo™ buffer and substrate was then added to the plate (100 μL per well). The plate was shaken for 5 min and read using the Tristar […] luminometer. Data analysis was performed using Sigma Plot 10.0. All values shown are presented as means±SEM from two independent experiments (n=3).
# Fusarium oxysporum = conditions: 24 h
# Experimental: Dose dependent inhibition of fungal growth by all non-labelled peptides (indicated by IC50 values) was determined via this methodology. The assays were performed using Nunc 262162 U96 polystyrene round bottomed clear plates (www.nuncbrand.com).
# as §1
# When testing the peptides against N. crassa and F. oxysporum, experiments were carried as described above apart from the incubation temperature was changed to 25° C. for N. crassa and 35° C. for F. oxysporum.
# as §2, §3
# [1] = Viability of reconstructed cornea-like epithelium (eye irritation model); conditions: human, reconstructed cornea-like epithelium (RhCE, EpiOcular™)
# Experimental: (§4) FIG. 4a is a graph of the viability reconstructed cornea-like epithelium (RhCE, EpiOcular™) after incubation with MFIGA001. NC=Negative Control; PC=Positive Control. FIG. 4b is a graph of the viability reconstructed cornea-like epithelium (RhCE, EpiOcular™) after incubation with 10 µM of MFIGA001a and MFIGAF001b. NC=Negative Control; PC=Positive Control; A2=MFIGAF001a; and B1=MFIGAF001b.
# (§5) MFIGAF001 was also assessed independently by a CRO (Evotec) in an OECD compliant reconstructed cornea-like epithelial cell model (RhCE, EpiOcular™).
# [2] = system: reconstructed cornea-like epithelium (RhCE, EpiOcular™); experiment: as above
# Experimental: as §4, §5
# [3] = system: C. albicans, F. oxysporum, A. fumigatus, and C. neoformans; experiment: Live cell imaging, fluorescent labelling of pathogenic fungi; set-up: dose or concentration left out as unconfirmed; conditions: 15 min incubation at 37° C. in RPMI
# Experimental: The N. crassa mat A WT used for confocal live-cell imaging was grown on 100% Vogel's agar medium at 25° C. for 3-5 days before the spores were harvested. The A. fumigatus CEA10 strain used for confocal live-cell imaging was grown on 100% Vogel's medium at 37° C. for 4-5 days before the spores were harvested. Before the confocal experiments were performed, N. crassa spores were incubated in eight-well slide culture chambers for 3 h at 25° C. in liquid 10% Vogel's medium and A. fumigatus spores were incubated for 16 h at 25° C. in liquid 10% Vogel's medium in order to allow germination to fully take place for imaging.
# Live-cell imaging of germinated fungi spores was performed using a Leica TCS SP8 confocal laser scanning microscope equipped with photo multiplier tubes (PMT), hybrid GaAsP (HyD) detectors and a 63× water immersion objective. A Leica turntable white light laser (WLL, 450-750 nm), argon laser (458 nm, 476 nm, 488 nm and 496 nm) and UV laser (405 nm) were used for fluorescence excitation.
# The major pathogenic fungi include C. albicans, F. oxysporum, A. fumigatus, and C. neoformans.
Compound,IC50 Aspergillus fumigatus (Aspergillus fumigatus) [mg/L],IC50 Fusarium oxysporum (Fusarium oxysporum) [mg/L],viability at 10 µM [1] [%],"Toxicity, reconstructed cornea-like epithelium (FIG. 4) [2]",Fluorescent labelling of pathogenic fungi [3]
"C[C@@H](NC(=O)[C@H](CCCCN)NC(=O)[C@H](CCCCN)NC(=O)[C@@H](N)CCCNC(=N)N)C(=O)N[C@@H](Cc1c[nH]c2ccccc12)C(=O)N[C@@H](Cc1ccccc1)C(=O)N[C@@H](Cc1c[nH]c2ccccc12)C(=O)NCC(=O)O [MFIGAF000, NH2-Arg-Lys-Lys-ala-Trp-Phe-Trp-Gly-COOH] (HELM PEPTIDE1{R.K.K.[dA].W.F.W.G}$$$$V2.0)",5.3,4.2,,,
"N=C(N)NCCC[C@@H]1NC(=O)CNC(=O)[C@H](CCCCNC(=O)c2cccc3c2C(=O)OC32c3ccc(O)cc3Oc3cc(O)ccc32)NC(=O)[C@H](Cc2c[nH]c3ccccc23)NC(=O)[C@H](Cc2ccccc2)NC(=O)[C@H](Cc2c[nH]c3ccccc23)NC(=O)[C@@H](Cc2ccccc2)NC(=O)[C@H](CCCCN)NC(=O)[C@H](CCCCN)NC1=O [MFIGAF001b, Cyclo(Arg-Lys-Lys-phe-Trp-Phe-Trp-Lys(CF)-Gly)] (cyclo(FWK(X2)GRKK[dF]W))",2.1,2.3,99.1,no obvious toxicity,label all major pathogenic fungi that cause fungal keratitis
"CN1/C(=C/C=C(/C=C/C2=[N+](C)c3ccccc3C2(C)C)c2ccc(C(=O)NCCCC[C@@H]3NC(=O)[C@H](Cc4c[nH]c5ccccc45)NC(=O)[C@H](Cc4ccccc4)NC(=O)[C@H](Cc4c[nH]c5ccccc45)NC(=O)[C@@H](Cc4ccccc4)NC(=O)[C@H](CCCCN)NC(=O)[C@H](CCCCN)NC(=O)[C@H](CCCNC(=N)N)NC3=O)cn2)C(C)(C)c2ccccc21 [MFIGAF001c, Cyclo(Arg-Lys-Lys-phe-Trp-Phe-Trp-Lys(Cy5))] (cyclo(FWK(X1)RKK[dF]W))",1.5,1.8,,,
"N=C(N)NCCC[C@@H]1NC(=O)[C@H](CCCCNC(=O)c2cccc3c2C(=O)OC32c3ccc(O)cc3Oc3cc(O)ccc32)NC(=O)[C@H](Cc2c[nH]c3ccccc23)NC(=O)[C@H](Cc2ccccc2)NC(=O)[C@H](Cc2c[nH]c3ccccc23)NC(=O)[C@@H](Cc2ccccc2)NC(=O)[C@H](CCCCN)NC(=O)[C@H](CCCCN)NC1=O [MFIGAF001d, Cyclo(Arg-Lys-Lys-phe-Trp-Phe-Trp-Lys(CF))] (cyclo(FWK(X2)RKK[dF]W))",2.9,3.0,,,
"N=C(N)NCCC[C@H](N)C(=O)N[C@@H](CCCCN)C(=O)N[C@@H](CCCCN)C(=O)N[C@H](Cc1ccccc1)C(=O)N[C@@H](Cc1c[nH]c2ccccc12)C(=O)N[C@@H](Cc1ccccc1)C(=O)N[C@@H](Cc1c[nH]c2ccccc12)C(=O)NCC(=O)O [MFIGAF002, NH2-Arg-Lys-Lys-phe-Trp-Phe-Trp-Gly-COOH] (HELM PEPTIDE1{R.K.K.[dF].W.F.W.G}$$$$V2.0)",2.8,3.5,,,
"N=C(N)NCCC[C@H](N)C(=O)N[C@@H](CCCCN)C(=O)N[C@@H](CCCCN)C(=O)N1CCC[C@H]1C(=O)N[C@@H](Cc1c[nH]c2ccccc12)C(=O)N[C@@H](Cc1ccccc1)C(=O)N[C@@H](Cc1c[nH]c2ccccc12)C(=O)NCC(=O)O [MFIGAF003, NH2-Arg-Lys-Lys-pro-Trp-Phe-Trp-Gly-COOH]",5.2,4.1,,,
N=C(N)NCCC[C@H](N)C(=O)N[C@@H](CCCCN)C(=O)N[C@@H](CCCCN)C(=O)N1CCC[C@@H]1C(=O)N[C@@H](Cc1c[nH]c2ccccc12)C(=O)N[C@@H](Cc1ccccc1)C(=O)N[C@@H](Cc1c[nH]c2ccccc12)C(=O)NCC(=O)O [MFIGAF004],5.2,4.1,,,
"C[C@H]1NC(=O)[C@H](CCCCN)NC(=O)[C@H](CCCCN)NC(=O)[C@H](CCCNC(=N)N)NC(=O)CNC(=O)[C@H](Cc2c[nH]c3ccccc23)NC(=O)[C@H](Cc2ccccc2)NC(=O)[C@H](Cc2c[nH]c3ccccc23)NC1=O [MFIGAF005, Cyclo(Arg-Lys-Lys-ala-Trp-Phe-Trp-Gly)] (HELM PEPTIDE1{F.W.G.R.K.K.[dA].W}$PEPTIDE1,PEPTIDE1,1:R1-8:R2$$$V2.0)",6.3,3.1,,,
"N=C(N)NCCC[C@@H]1NC(=O)CNC(=O)[C@H](Cc2c[nH]c3ccccc23)NC(=O)[C@H](Cc2ccccc2)NC(=O)[C@H](Cc2c[nH]c3ccccc23)NC(=O)[C@@H]2CCCN2C(=O)[C@H](CCCCN)NC(=O)[C@H](CCCCN)NC1=O [MFIGAF007, Cyclo(Arg-Lys-Lys-pro-Trp-Phe-Trp-Gly)]",5.2,3.4,,,
N=C(N)NCCC[C@@H]1NC(=O)CNC(=O)[C@H](Cc2c[nH]c3ccccc23)NC(=O)[C@H](Cc2ccccc2)NC(=O)[C@H](Cc2c[nH]c3ccccc23)NC(=O)[C@H]2CCCN2C(=O)[C@H](CCCCN)NC(=O)[C@H](CCCCN)NC1=O [MFIGAF008],5.5,3.8,,,
"H-RKKWFW-NH2 [PAF26, NH2-Arg-Lys-Lys-Trp-Phe-Trp-CONH2, reference compound]",8.0,7.2,,,

# Reference: patent US20240299591A1, “Antimicrobial Peptides and Their Use” (priority 2021, published 2024)
